Data published in article PMC10541198, “Specific quinone reductase 2 inhibitors reduce metabolic burden and reverse Alzheimer’s disease phenotype in mice” (The Journal of Clinical Investigation, 2023).
“And” between values parts separate entries of the source, which are not always exact repeats. Equal values may be shown once.

Experiments:
Format in all cases: in vivo, mouse
5xFAD mice = assay: Nesting in 5xFAD mice; design: key to Sup. Fig. 5-2J, nesting: nesting score on a scale of 1 to 5
Description: Each home cage was given six identical portions of cotton wool tubes and 24 h later the nest made was photographed from above. The images were gi ven the names of the respective cages, whi ch were coded […]
(see ‘Blinding Measures for Animal Experiments’ section), and were analyzed by an experimenter that was blind to the conditions, groups and cage codes. […]
Analysis of the images was done blind, by an experimenter unaware of the experimental conditions or details, using Imaris (Bitplane) software. Surface reconstruction module was used to extract the data as volumes and / or si gnal intensities of the used markers (4-HNE, phospho- t au, amyloid β and Iba 1) .

Iba1 = assay: IHC of Iba1 (microglia activation) in 5xFAD brain sections; conditions: for Iba1 normalized volume (individual mice): CA1, 5xFAD 1 month; for Figure 9D, IHC signal: individual animals; for Iba1 vs vehicle: cortex, 5xFAD 1 month
Text: (§1) Following the behavioral experiments, we assessed brain pathologies associated with AD present in the 5xFAD mice ([37]). Therefore, 5 days following the last behavioral experiment, and 1 month after the start of YB-537 consumption, mice were sacrificed, and coronal brain sections were used for IHC. Since the CA1 region of the hippocampus is affected during AD pathogenesis ([37]), and this brain region is involved in the behavioral paradigms used here, we acquired images of CA1. This was done with an Olympus IX83 confocal microscope using the same settings, antibodies, and exposures in all mice. Images were analyzed using Imaris (Bitplane; see methods). For each mouse, 3 coronal sections were used per antibody. In each section, the same region of CA1 was acquired, using the same image frame size and resolution, at all possible depths of the section — using a Z-stack of the whole section — to allow measurement of the fluorescent antibody marker volume, which was normalized to the brain volume from which it was taken. First, we measured oxidative stress, as indicated by 4-HNE ([38]) (Abcam, ab48506).
(§2) Perfused and fixed brain slices were blocked with 10% normal donkey serum (DNS) and 0.2% triton (Sigma-Aldrich) in PBS. Antibodies, including 4-HNE (AbCam, ab48506), Iba1 (AbCam, ab5076), AT-8 (Thermo, MN1020), Amyloid β (AbCam, ab201060), diluted in PBS with 10% DNS, were incubated at 4°C overnight. Secondary antibodies including donkey-anti-goat Alexa Fluor 568 (AbCam, ab175704), donkey-anti-mouse Cy 5 (Jackson Immuno Research, 715-175-151), and donkey-anti-rabbit DyLight 488 (AbCam, ab98488) all diluted 1:500 in PBS with 1% BSA, were applied to the slices at RT for 2 hours the next day. Slices were mounted onto glass slides using DAPI containing Vectashield (H-1200). Images were taken using a confocal microscope (Olympus IX83). Three slices were used per mouse per antibody. Tiling images of the dorsal CA1 and cortex (Bregma: –1.58mm to –2.30mm) were taken using ×20 objective, acquiring a Z-stack of the whole section. Analysis of the images was done blind by an experimenter unaware of the experimental conditions or details, using Imaris (Bitplane) software. A surface reconstruction module was used to extract the data as volumes of the used markers (4-HNE, phospho-tau, amyloid β, GFAP, and Iba1). Marker volume and intensity were normalized to the corresponding brain volume. The normalized value was averaged for each triplicate and presented here. […]
(§3) Brains were then briefly removed and placed in chilled, 4% PFA for 48 h, f oll owe d by immersion in 30% sucrose in 0.1 M PBS for a furt her 48 h. Bra i ns wer e t h e n stored at -80°C, until t he y were sliced into 40µm coronal sections usinga Lei ca CM 1950cryostat. Sli ces were then washed x3 in PBS and bl oc ke d for 1 h at RT using 10% normal donkey serum (DNS) and 0.2% triton (Sigma-Aldrich) in PBS. Antibodies, including 4- HNE (1:500, AbCam, ab48506), Iba1 (1:2,000, AbCam, ab5076), GFAP (Abcam, ab53554), phospho- tau (1:1,000, Thermo, MN1020) and amyloid β (1:1,000, AbCam, ab201060) diluted in PBS with 10% DNS were incubated at 4°C overnight. The next day, the slices were washed x3 times in PBS, and secondary antibodies including donkey anti goat A l e x a Fluor 568 (AbCam, ab175704), donkey anti-mouse Cy 5 (Jackson Immuno Research, 715- 175- 151) and donkey anti-rabbit DyLight 488 (AbCam, ab98488) all diluted 1:500 in PBS with 1% BSA, were applied to the slices at RT for 2 h. Following the incubation, the slices were washed x3 times in PBS, mounted onto gl ass slides, were uniformly covered in DAPI containing Vectashield (H-1200) and coverslips were a dde d. […]

[1] = Body weight during chronic ingestion; conditions: for average weight: over 25 days of consumption; for Sup. Fig. 5-2A, body weight: in g (unit assumed)
Description: Supplementary Figure 6. Chronic Drinking of 50 mg/kg YB -537 for of 1 Month Causes no Changes
in General Mouse Physiology or Behavior but Improves Nesting Behavior Over Time. […]

p-tau = assay: IHC of p-tau (AT8) in 5xFAD brain sections; conditions: for p-tau normalized volume (individual mice): CA1, 5xFAD 1 month; for Figure 9C, IHC signal / Sup. Fig. 6-1C, IHC signal: individual animals; for p-Tau vs vehicle: cortex, 5xFAD 1 month
Text: as §1, §2, §3

Cc1ccc(-c2cn3cccc(C)c3n2)cc1S(=O)(=O)N1CCNCC1 [YB-537]
Nest quality (5xFAD mice; 5xFAD 1 month, regardless of sex (Pearson r)): significantly correlated to time under treatment
Sup. Fig. 5-2J, nesting (5xFAD mice; Females, Day 0): 2 and 3
Sup. Fig. 5-2J, nesting (5xFAD mice; Females, Day 7): 3 and 4
Sup. Fig. 5-2J, nesting (5xFAD mice; Females, Day 14): 4
Sup. Fig. 5-2J, nesting (5xFAD mice; Females, Day 21): 5 and 4
Sup. Fig. 5-2J, nesting (5xFAD mice; Males + Females, Day 0): 3 and 2
Sup. Fig. 5-2J, nesting (5xFAD mice; Males + Females, Day 7): 4 and 3
Sup. Fig. 5-2J, nesting (5xFAD mice; Males + Females, Day 14): 4 and 3
Sup. Fig. 5-2J, nesting (5xFAD mice; Males + Females, Day 21): 5 and 4
Sup. Fig. 5-2J, nesting (5xFAD mice; Males, Day 0): 2 and 3
Sup. Fig. 5-2J, nesting (5xFAD mice; Males, Day 7): 3 and 4
Sup. Fig. 5-2J, nesting (5xFAD mice; Males, Day 14): 4 and 3
Sup. Fig. 5-2J, nesting (5xFAD mice; Males, Day 21): 4 and 5
Iba1 normalized volume (individual mice) (Iba1; Females): 0.0305 and 0.0266 and 0.0346 and 0.0314 and 0.0200 and 0.0191 and 0.0158
Iba1 normalized volume (individual mice) (Iba1; Males): 0.0473 and 0.0384 and 0.0542 and 0.0369 and 0.0352 and 0.0318 and 0.0209 and 0.0414 and 0.0362
Iba1 normalized volume (individual mice) (Iba1; Males + Females): 0.0473 and 0.0384 and 0.0542 and 0.0369 and 0.0352 and 0.0314 and 0.0200 and 0.0191 and 0.0158 and 0.0305 and 0.0266 and 0.0346 and 0.0318 and 0.0209 and 0.0414 and 0.0362
Figure 9D, IHC signal (Iba1; Cortex): 0.0209 and 0.0186 and 0.0218 and 0.0206 and 0.0305 and 0.0198 and 0.0227
Figure 9D, IHC signal (Iba1; Hippocampus): 0.0213 and 0.0206 and 0.0202 and 0.0175 and 0.0174 and 0.0220 and 0.0296 and 0.0197
Iba1 vs vehicle (Iba1; females): significantly reduced
Iba1 vs vehicle (Iba1; males): insignificantly reduced
Iba1 vs vehicle (Iba1; total population): significantly reduced
average weight ([1]; 5xFAD females): 22.76 ± 0.192 g
average weight ([1]; 5xFAD males): 32.56 ± 0.279 g
Sup. Fig. 5-2A, body weight ([1]; Female, Day 1): 23 and 22 and 24 and 25 and 21 and 20
Sup. Fig. 5-2A, body weight ([1]; Female, Day 3): 25 and 20 and 24 and 23
Sup. Fig. 5-2A, body weight ([1]; Female, Day 5): 25 and 21 and 27 and 24 and 20
Sup. Fig. 5-2A, body weight ([1]; Female, Day 9): 24 and 20 and 25 and 27 and 22
Sup. Fig. 5-2A, body weight ([1]; Female, Day 11): 23 and 21 and 25 and 26 and 22
Sup. Fig. 5-2A, body weight ([1]; Female, Day 15): 25 and 22 and 26 and 23 and 24
Sup. Fig. 5-2A, body weight ([1]; Female, Day 16): 23 and 20 and 24
Sup. Fig. 5-2A, body weight ([1]; Female, Day 18): 23 and 21 and 24 and 22 and 20
Sup. Fig. 5-2A, body weight ([1]; Female, Day 25): 25 and 22 and 23 and 21
Sup. Fig. 5-2A, body weight ([1]; Male, Day 1): 34 and 42 and 33 and 36 and 31 and 28
Sup. Fig. 5-2A, body weight ([1]; Male, Day 3): 33 and 41 and 32 and 35 and 30 and 26
Sup. Fig. 5-2A, body weight ([1]; Male, Day 5): 33 and 40 and 32 and 35 and 30 and 26 and 34 and 31
Sup. Fig. 5-2A, body weight ([1]; Male, Day 9): 31 and 39 and 32 and 33 and 30 and 27 and 35
Sup. Fig. 5-2A, body weight ([1]; Male, Day 11): 31 and 32 and 34 and 30 and 28 and 35
Sup. Fig. 5-2A, body weight ([1]; Male, Day 15): 32 and 39 and 34 and 31 and 28 and 36
Sup. Fig. 5-2A, body weight ([1]; Male, Day 18): 32 and 37 and 29 and 30 and 33 and 27 and 35
Sup. Fig. 5-2A, body weight ([1]; Male, Day 25): 32 and 39 and 31 and 34 and 27
p-tau normalized volume (individual mice) (p-tau; Females): 0.0465 and 0.0384 and 0.0492 and 0.0132 and 0.0255 and 0.0111 and 0.0090
p-tau normalized volume (individual mice) (p-tau; Males): 0.0610 and 0.0859 and 0.0662 and 0.0488 and 0.0445 and 0.0550 and 0.1044 and 0.0487 and 0.0628
p-tau normalized volume (individual mice) (p-tau; Males + Females): 0.0465 and 0.0384 and 0.0492 and 0.0550 and 0.1044 and 0.0487 and 0.0628 and 0.0610 and 0.0859 and 0.0662 and 0.0488 and 0.0445 and 0.0132 and 0.0255 and 0.0111 and 0.0090
Figure 9C, IHC signal (p-tau; Cortex): 0.0130 and 0.0160 and 0.0210 and 0.0219 and 0.0108 and 0.0168 and 0.0118 and 0.0284 and 0.0147
Sup. Fig. 6-1C, IHC signal (p-tau; Females): 0.0087 and 0.0158 and 0.0323 and 0.0264 and 0.0119 and 0.0169 and 0.0098
Figure 9C, IHC signal (p-tau; Hippocampus): 0.0315 and 0.0219 and 0.0395 and 0.0356 and 0.0234 and 0.0118 and 0.0425 and 0.0378 and 0.0364
Sup. Fig. 6-1C, IHC signal (p-tau; Males): 0.0177 and 0.0343 and 0.0259 and 0.0422 and 0.0294 and 0.0273 and 0.0409 and 0.0167 and 0.0342
p-Tau vs vehicle (p-tau; females): unchanged
p-Tau vs vehicle (p-tau; males): unchanged
p-Tau vs vehicle (p-tau; total population): unchanged
